{"source": "patent US4250259A", "about": "“Microbiological production of ketones from C3 -C6 secondary alcohols” (priority 1979, dated 1981)", "key": {"[1]": {"test_system": "Candida boidinii NRRL Y-2332", "conditions": "cell suspensions", "protocol": "(§1) The cells were harvested during exponential growth by centrifugation at 12,000×g. for 15 min. The cell pellet was washed twice with 50 mM phosphate buffer, pH 7. The final pellet was resuspended in the same buffer. Cell suspensions of yeasts grown on ethanol, methylamine, and methylformate were prepared as described above using 0.4 v/v ethanol, 10 mM methylamine and 10 mM methylformate as the sole source of carbon and energy.\n(§2) A 1 ml. aliquot of each washed cell suspension of yeasts grown on various carbon sources was put into 10 ml. vials at 40° C. […] The vials were then incubated at 30° C. on a rotary water bath shaker at 200 rpm. The product of oxidation of secondary alcohols was detected by gas chromatography retention time comparison and co-chromatography with authentic standard."}, "[2]": {"test_system": "Hansenula anomala NRRL Y-336", "conditions": "cell suspensions", "protocol": "as §1, §2"}, "[3]": {"test_system": "Pichia pastoris NRRL Y-55", "conditions": "cell suspensions", "protocol": "as §1, §2"}, "[4]": {"test_system": "secondary alcohol dehydrogenase (SADH), cell-free soluble extract", "conditions": "Growth Substrate CH4", "protocol": "(§3) To prepare the cell-free secondary alcohol dehydrogenase (SADH) system, the washed cells were disrupted with a Wave Energy Ultrasonic Oscillator, Model W201 (Wave Energy System, Inc., Newtown, Pa.) and centrifuged at 20,000×g. for 30 minutes. […] The enzyme activity was measured with a fluorescence spectrophotometer (Perkin Elmer, Model MPF 44A) by following the formation of reduced NAD (EX 340 nm, Em 460 nm). The formation of reduced NAD was also followed with an absorption spectrophotometer at 340 nm. The assay system (3 ml.) contained: potassium phosphate buffer pH 7.0; 150 μmol.; NAD 1 μmol.; a given amount of enzyme preparation; and secondary alcohol 10 μmol. The reaction was started by the addition of substrate. One unit of enzyme activity represents the reduction of one μmole NAD per minute. Protein concentrations were determined by the Lowry method (J. Biol. Chem., 193: 255-275 (1951)).\n(§4) The experimental procedure for the tests reported in Table VIII were as follows: 1 mg protein of crude extract was added into a 0.5 ml. 0.05 M phosphate buffer (pH 7.0) in a 10-ml. vial. […] The reaction mixture was incubated at 30° C. on a water bath. A 3 μl sample was removed with a syringe at 15 min. of incubation and was assayed with g.l.c. Catalytic activity was also assayed by fluorescence spectrophotometry."}, "[5]": {"test_system": "cell-free extracts of strain ATCC 21439", "assay": "stoichiometry of production of 2-butanone from 2-butanol by cell-free extracts (Table IX)", "format": "biochemical, Pseudomonas sp. ATCC 21,439", "conditions": "30° C., 1.0 mg protein, 1.0 μmoles NAD, 10 μmoles 2-butanol", "quoted_text": "The reaction mixtures 3 ml (1.0 mg protein) were incubated at 30°\n^(a) Determined gas chromatographically.\n^(b) Determined fluorescence spectrophotometrically.\nconsumption of NAD was corrected."}, "[6]": {"test_system": "secondary alcohol dehydrogenase (SADH), cell-free soluble extract", "conditions": "Growth Substrate CH3 OH", "protocol": "as §3, §4"}, "[7]": {"test_system": "secondary alcohol dehydrogenase (SADH), cell-free soluble extract", "protocol": "as §3, §4"}, "[8]": {"test_system": "secondary alcohol dehydrogenase (SADH), cell-free soluble extract", "conditions": "Growth Substrate CH4", "protocol": "as §3, §4", "remark": "listed apart in the source"}, "[9]": {"test_system": "secondary alcohol dehydrogenase (SADH), cell-free soluble extract", "conditions": "Growth Substrate CH3 OH", "protocol": "as §3, §4", "remark": "listed apart in the source"}, "[10]": {"test_system": "secondary alcohol dehydrogenase (SADH), cell-free soluble extract", "conditions": "Growth Substrate CH3 OH", "protocol": "as §3, §4", "remark": "listed apart in the source"}, "[11]": {"test_system": "secondary alcohol dehydrogenase, crude extracts", "conditions": "2-butanol as a substrate; extracts of methanol-grown yeast", "protocol": "(§5) Cell suspensions (2 g. wet weight) of packed cells in 10 ml. of 50 mM sodium phosphate buffer, pH 7.0 at 4° C. were disrupted by sonication with a Megason ultrasonic disintegration. The sonicated cell suspensions were centrifuged for 15 minutes at 30,000×g. The supernantant liquid was termed the crude extracts.\n(§6) Secondary alcohol dehydrogenase activity was measured spectrophotometrically at 340 nm with a NAD^+ as an electron acceptor. The reaction mixture, in a total 3.0 ml., contained 50 mM phosphate buffer, pH 8.0, 5 μmoles NAD^+, crude extracts, and substrate. The reactions were started by addition of 100 μl of 0.1 M substrate and the rate of NAD^+ reduction was measured. Protein concentration was determined by the method of Lowry et al.\n(§7) Oxidation of secondary alcohols were also estimated spectrophotometrically by measuring the reduction of NAD^+. […] NRRL Y-11,328 Torulopsis sp."}, "[12]": {"test_system": "secondary alcohol dehydrogenase, crude extracts", "conditions": "2-butanol as a substrate; extracts of methanol-grown yeast", "protocol": "as §5, §6, §7", "remark": "listed apart in the source"}, "[13]": {"test_system": "secondary alcohol dehydrogenase (SADH), cell-free soluble extract", "conditions": "Growth Substrate CH4", "protocol": "as §3, §4", "remark": "listed apart in the source"}, "[14]": {"test_system": "secondary alcohol dehydrogenase (SADH), cell-free soluble extract", "protocol": "as §3, §4", "remark": "listed apart in the source"}, "[15]": {"test_system": "secondary alcohol dehydrogenase (SADH), cell-free soluble extract", "conditions": "Growth Substrate CH3 OH", "protocol": "as §3, §4", "remark": "listed apart in the source"}, "[16]": {"test_system": "secondary alcohol dehydrogenase (SADH), cell-free soluble extract", "conditions": "Growth Substrate CH3 OH", "protocol": "as §3, §4", "remark": "listed apart in the source"}, "[17]": {"test_system": "secondary alcohol dehydrogenase, crude extracts", "conditions": "2-butanol as a substrate; extracts of methanol-grown yeast", "protocol": "as §5, §6, §7", "remark": "listed apart in the source"}, "[18]": {"test_system": "secondary alcohol dehydrogenase (SADH), cell-free soluble extract", "conditions": "Growth Substrate CH3 OH", "protocol": "as §3, §4", "remark": "listed apart in the source"}, "[19]": {"test_system": "secondary alcohol dehydrogenase, crude extracts", "conditions": "2-butanol as a substrate; extracts of methanol-grown yeast", "protocol": "as §5, §6, §7", "remark": "listed apart in the source"}, "[20]": {"test_system": "secondary alcohol dehydrogenase (SADH), cell-free soluble extract", "conditions": "Growth Substrate CH4", "protocol": "as §3, §4", "remark": "listed apart in the source"}, "[21]": {"test_system": "secondary alcohol dehydrogenase (SADH), cell-free soluble extract", "conditions": "Growth Substrate CH4", "protocol": "as §3, §4", "remark": "listed apart in the source"}, "[22]": {"test_system": "secondary alcohol dehydrogenase (SADH), cell-free soluble extract", "conditions": "Growth Substrate CH3 OH", "protocol": "as §3, §4", "remark": "listed apart in the source"}, "[23]": {"test_system": "secondary alcohol dehydrogenase (SADH), cell-free soluble extract", "conditions": "Growth Substrate CH3 OH", "protocol": "as §3, §4", "remark": "listed apart in the source"}, "[24]": {"test_system": "secondary alcohol dehydrogenase (SADH), cell-free soluble extract", "conditions": "Growth Substrate CH3 OH", "protocol": "as §3, §4", "remark": "listed apart in the source"}, "[25]": {"test_system": "secondary alcohol dehydrogenase, crude extracts", "conditions": "2-butanol as a substrate; extracts of methanol-grown yeast", "protocol": "as §5, §6, §7", "remark": "listed apart in the source"}, "[26]": {"test_system": "secondary alcohol dehydrogenase (SADH), cell-free soluble extract", "conditions": "Growth Substrate CH4", "protocol": "as §3, §4", "remark": "listed apart in the source"}}, "note": "Where two headings read alike, the source gives them in different places."}
{"compound": "CCC(C)O", "note": "(stereo not drawn) [2-Butanol, 2-butanol]", "values": [{"measurement": "conversion rates, 2-butanol to 2-butanone", "setting": "[1]", "result": 6.0, "unit": "μ moles/hr/mg. protein"}, {"measurement": "conversion rates, 2-butanol to 2-butanone", "setting": "[2]", "result": 5.5, "unit": "μ moles/hr/mg. protein"}, {"measurement": "conversion rates, 2-butanol to 2-butanone", "setting": "[3]", "result": 5.8, "unit": "μ moles/hr/mg. protein"}, {"measurement": "Conversion Rate, 2-butanol to 2-butanone", "setting": "[4]", "result": 1.2, "unit": "nmoles/min/mg protein"}, {"measurement": "2-Butanol Consumed", "setting": "[5]; Experiment 1: 10 min.", "result": 260, "unit": "nmol"}, {"measurement": "2-Butanol Consumed", "setting": "[5]; Experiment 2: 20 min.", "result": 530, "unit": "nmol"}, {"measurement": "Conversion Rate, 2-butanol to 2-butanone", "setting": "[6]", "result": 5.0, "unit": "nmoles/min/mg protein"}, {"measurement": "Conversion Rate, 2-butanol to 2-butanone", "setting": "[7]; Growth Substrate CH3 OH", "result": 2.0, "unit": "nmoles/min/mg protein"}, {"measurement": "Conversion Rate, 2-butanol to 2-butanone", "setting": "[7]; Growth Substrate CH4", "result": 1.5, "unit": "nmoles/min/mg protein"}, {"measurement": "Conversion Rate, 2-butanol to 2-butanone", "setting": "[8]", "result": 0.8, "unit": "nmoles/min/mg protein"}, {"measurement": "Conversion Rate, 2-butanol to 2-butanone", "setting": "[9]", "result": 1.8, "unit": "nmoles/min/mg protein"}, {"measurement": "Conversion Rate, 2-butanol to 2-butanone", "setting": "[10]", "result": 1.6, "unit": "nmoles/min/mg protein"}, {"measurement": "specific activities", "setting": "[11]", "result": "78 nmoles NAD^+ reduced per min. per mg. protein"}, {"measurement": "specific activities", "setting": "[12]", "result": "85 nmoles NAD^+ reduced per min. per mg. protein"}, {"measurement": "Conversion Rate, 2-butanol to 2-butanone", "setting": "[13]", "result": 1.4, "unit": "nmoles/min/mg protein"}, {"measurement": "Conversion Rate, 2-butanol to 2-butanone", "setting": "[14]; Growth Substrate CH3 NH2", "result": 20.0, "unit": "nmoles/min/mg protein"}, {"measurement": "Conversion Rate, 2-butanol to 2-butanone", "setting": "[14]; Growth Substrate CH3 OH", "result": 23.2, "unit": "nmoles/min/mg protein"}, {"measurement": "Conversion Rate, 2-butanol to 2-butanone", "setting": "[14]; Growth Substrate HCOOCH3", "result": 16.0, "unit": "nmoles/min/mg protein"}, {"measurement": "Conversion Rate, 2-butanol to 2-butanone", "setting": "[15]", "result": 2.0, "unit": "nmoles/min/mg protein"}, {"measurement": "Conversion Rate, 2-butanol to 2-butanone", "setting": "[16]", "result": 2.2, "unit": "nmoles/min/mg protein"}, {"measurement": "specific activities", "setting": "[17]", "result": "105 nmoles NAD^+ reduced per min. per mg. protein"}, {"measurement": "Conversion Rate, 2-butanol to 2-butanone", "setting": "[18]", "result": 1.5, "unit": "nmoles/min/mg protein"}, {"measurement": "specific activities", "setting": "[19]", "result": "62 nmoles NAD^+ reduced per min. per mg. protein"}, {"measurement": "Conversion Rate, 2-butanol to 2-butanone", "setting": "[20]", "result": 1.8, "unit": "nmoles/min/mg protein"}, {"measurement": "Conversion Rate, 2-butanol to 2-butanone", "setting": "[21]", "result": 2.5, "unit": "nmoles/min/mg protein"}, {"measurement": "Conversion Rate, 2-butanol to 2-butanone", "setting": "[22]", "result": 2.4, "unit": "nmoles/min/mg protein"}, {"measurement": "Conversion Rate, 2-butanol to 2-butanone", "setting": "[23]", "result": 15.0, "unit": "nmoles/min/mg protein"}, {"measurement": "Conversion Rate, 2-butanol to 2-butanone", "setting": "[24]", "result": 3.0, "unit": "nmoles/min/mg protein"}, {"measurement": "specific activities", "setting": "[25]", "result": "90 nmoles NAD^+ reduced per min. per mg. protein"}, {"measurement": "Conversion Rate, 2-butanol to 2-butanone", "setting": "[26]", "result": 0.5, "unit": "nmoles/min/mg protein"}]}
